# Like-named read-outs stand apart in the source and are kept apart here.
# Experiments:
# [1] = system: green rice leafhoppers (Nephotettix cincticeps Uhler); assay: Mortality test with green rice leafhoppers by topical application method; conditions: Nephotettix cincticeps, in Oryza sativa, 24 h
# Procedure: Mortality test with green rice leafhoppers (Nephotettix cincticeps Uhler) by topical application method
# Then, the insects were kept at 25° C. with access to rice plant seedlings. The insects were used in groups of 15 individuals each.
# [2] = system: rice stem borers (Chilo suppressalis Walker); assay: Mortality test with rice stem borers by topical application method; assay type: in vivo; conditions: 24 h
# Procedure: Mortality test with rice stem borers (Chilo suppressalis Walker) by topical application method
# Using a microsyringe, 0.5 μl of the above solution was applied to the thoracic abdominal region of each final-instar larva of rice stem borer (Chilo suppressalis Walker). […] The test larvae were used in groups of 20 individuals each.
# [3] = system: tobacco cutworms (Prodenia litura Fabricius); assay: Mortality test with tobacco cutworms by topical application method; assay type: in vivo; conditions: 24 h
# Procedure: Mortality test with tobacco cutworms (Prodenia litura Fabricius) by topical application method
# Using a microsyringe, 0.5 μl of the above solution was dripped onto the thoracic adbominal region of each of 3-instar tobacco cutworm (Prodenia litura Fabricius) larvae. […] The test larvae were used in groups of 20 individuals each.
# [4] = system: two-spotted spider mites (Tetranychus urticae Koch); assay: Mortality test with two-spotted spider mites by spray application method; assay type: in vivo; conditions: 48 h, 200 ppm spray, two days, read-out: Percent decrease of population (%)
# Procedure: Mortality test with two-spotted spider mites (Tetranychus urticae Koch) by spray application method
# To a 5% aqueous solution of acetone was added dropwise a small amount of Tween-20 (polyethylene sorbitan monolaurate) as a surfactant. […] From 30 to 50 adult two-spotted spider mites (Tetranychus urticae Koch) were released on the leaves of kidney-bean plants in the dicotyledonous stage in a pot 9 cm in diameter, followed by a spray application of the above solution. The pot was kept in a constant-temperature chamber at 26° C. and two days later the mites were examined for deaths. The percent decrease of population was then calculated.
# [5] = Fish toxicity test with killifish; assay type: in vivo, Orizias latipes; conditions: water, killifish, 25±1° C., read-out: TLm (48 hrs.)
# Procedure: (§1) Fish toxicity test with killifish (Orizias latipes)
# (§2) An acetone solution of one of the test compounds as mentioned in Table 8 was prepared by adding said test compound to 15 ml of acetone. To 10 liters of water was added a predetermined amount of the above acetone solution and the mixture was stirred thoroughly to prepare an aqueous solution containing the test compound in a predetermined concentration. This was used as a test water. After the each test water was moderately aerated, ten killifishes (Orizias latipes) with a body weight of about 0.25 g and a body length of about 2.5 cm were released into said each test water which was maintained at 25±1° C. After 48 hours, the test fish was examined for death. The TLm (median tolerance limit, ppm) was determined.
# [6] = system: killifish (Orizias latipes); assay: Fish toxicity test with killifish; assay type: in vivo; conditions: Table 1; 48 hrs.
# Procedure: as §1, §2
# [7] = Fish toxicity test with guppies; assay type: in vivo, Lebistes reticulatus; conditions: guppy, water, guppies, 20° C., read-out: TLm (48 hrs.)
# Method in brief: (§3)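 Ten female guppies, 3–4 months old, held at 20 °C in water containing surfactant and test compound added in acetone solution. TLm (median tolerance limit, ppm) determined.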
# [8] = system: guppies (Lebistes reticulatus); assay: Fish toxicity test with guppies; assay type: in vivo; conditions: Table 1; 48 hrs.
# Method in brief: as §3
# [9] = Acute toxicity test in rat by the oral route; assay type: in vivo; conditions: in vivo, male rat, in olive oil, after 7 days
# Excerpt: (§4) Acute toxicity test in rat by the oral route
# rat = assay: Acute toxicity test in rat by the oral route; assay type: in vivo; conditions: Table 1, rat, 10080 min
# Excerpt: as §4
# [10] = system: green rice leafhoppers (Nephotettix cincticeps Uhler); assay: Utility Example-2: spray on rice plants, green rice leafhoppers; assay type: in vivo; conditions: 7 ml/pot, 24 hours
# Procedure: A 30% emulsifiable concentrate of each of the cis- and trans-isomers and a 50:50 mixture of the cis- and trans-isomers of Compound (1) and Compound (2) as prepared by the procedure described in Formulation Example-1 was diluted with water to a concentration of 80 ppm as active compound. Rice plants 4 weeks after sowing in pots (each pot 6 cm in diameter, 7 seedlings) were sprayed with the above solution at the rate of 7 ml/pot and, after drying in the air, each pot was covered with a wire-mesh cage. Then, 20 female adult green rice leafhoppers (Nephotettix cincticeps Uhler) were released into the cage. The caged pots were kept in a constant-temperature chamber at 25° C. […] In all groups, the mortality values were not less than 90%.
# [11] = system: small brown planthoppers (Laodelphax striatellus Fallen); assay: Utility Example-3: spray on rice plants, small brown planthoppers; assay type: in vivo; conditions: 7 ml/pot, 24 hours
# Procedure: A 30% emulsifiable concentrate of each of the cis- and trans-isomers and a 50:50 mixture of the cis- and trans-isomers of Compound (1) and of Compound (2) as prepared by the procedure described in Formulation Example-1 was diluted with water to a concentration of 80 ppm as active compound. Rice plants 4 weeks after sowing in pots (each pot 6 cm in diameter, 7 seedlings) were sprayed with the above diluted solution at the rate of 7 ml/pot and, after drying in the air, each pot was covered with a wire-mesh cage. Then, 30 adult small brown planthoppers (Laodelphax striatellus Fallen) were released into the cage. The pots were kept in a constant-temperature chamber at 25° C. […] In all groups, the mortality was not less than 90%.
# [12] = system: green rice leafhoppers (Nephotettix cincticeps Uhler); assay: Utility Example-4: 0.2% dust on rice seedlings, green rice leafhoppers; assay type: in vivo; conditions: 5 kg per 10 ares, 24 hours, resistant to organophosphorus and carbamate pesticides
# Excerpt: (§5) A 0.2% dust preparation of each of the cis- and trans-isomers and a 50:50 mixture of the cis- and trans-isomers of Compound (1) and of Compound (2) as prepared by the procedure described in Formulation Example-3 was applied to rice seedlings by means of a bell-jar duster at the rate of 5 kg per 10 ares. […] In all cases, the mortality was not less than 90%.
# [13] = system: tobacco cutworm (Prodenia litura); assay: Utility Example-5: spray on soy bean leaves, tobacco cutworm larvae; assay type: in vivo; conditions: 48 h; 13 ppm; 2 days
# Procedure: An acetone solution of one of the test compounds as mentioned in Table 13 and Tween-20 (the same surfactant as mentioned hereinbefore) was prepared. This acetone solution was diluted with water to prepare a solution containing the test compound in a predetermined concentration. Leaves of soy bean in pots were sprayed with the above diluted solution at the rate of 20 ml/pot and, after one day, ten 3-instar larvae of tobacco cutworm (Prodenia litura) were released on the leaves. The pots were kept in a constant-temperature chamber at 25° C.
# [14] = system: green rice leafhoppers (Nephotettix cincticeps); assay: Utility Example-6: 0.5% dust on rice seedlings, green rice leafhoppers; assay type: in vivo; conditions: 1 kg per 10 ares, 24 hours, resistant to organophosphorus and carbamate pesticides
# Excerpt: as §5, with “A 0.5%” for “A 0.2%”, “Formulation Example-4” for “Formulation Example-3”, “of 1” for “of 5”, “ares. Then, 30 green rice leafhoppers (Nephotettix cincticeps) resistant to organophosphorus and carbamate pesticides were released.” for “ares.”
# [15] = system: brown planthoppers (Nilaparvata lugens); assay: Utility Example-7: 0.5% dust on rice seedlings, brown planthoppers; assay type: in vivo; conditions: 1 kg per 10 ares, 24 hours
# Excerpt: as §5, with “A 0.5%” for “A 0.2%”, “Formulation Example-4” for “Formulation Example-3”, “rice seedlings, on which 30 adult brown planthoppers (Nilaparvata lugens) were released,” for “rice seedlings”, “of 1” for “of 5”
# [16] = system: houseflies (Musca domestica); assay: Mortality test with houseflies by topical application method; conditions: 24 h
smiles,measurement,setting,value
"CC1(C)C(C=C(Cl)Cl)C1C(=O)OCc1cccc(Oc2ccc(Cl)cc2)c1 (stereo not drawn) [Compound (1) cis-/trans- = 50:50, 3-(4-chlorophenoxy)benzyl 2,2-dimethyl-3-(2,2-dichlorovinyl)cyclopropanecarboxylate]",mortality at 0.01 µg/female,[1],100%
same,mortality at 0.1 µg/female,[1],100%
same,mortality at 1 µg/female,[1],100%
same,LD50,"[1]; read-out: LD50 (median lethal dose), topical, green rice leafhoppers",1.32 mg/kg
same,mortality at 10 ng,"[1]; read-out: Pesticidal effect, green rice leafhopper",100%
same,mortality at 1 µg/larva,[2],100%
same,mortality at 10 µg/larva,[2],100%
same,mortality at 0.001 mg,"[2]; read-out: Pesticidal effect, rice stem borer",100%
same,mortality at 0.0001 mg,[3],100%
same,mortality at 0.0001 mg,"[3]; read-out: Pesticidal effect, tobacco cutworm",100%
same,mortality at 200 ppm,[4],100%
same,LC50 at 48 h,[5],> 10 µg/mL
same,"Toxicity to fish TLm, killifish",[6],> 10 ppm
same,LC50 at 48 h,[7],> 5 µg/mL
same,"Toxicity to fish TLm, guppy",[8],> 5 ppm
same,LD50 at 168 h,[9],> 3000 mg/kg
same,Acute oral toxicity to rat LD50,rat,> 3000 mg/kg
same,mortality at 80 ppm,[10],≥ 90%
same,mortality at 80 ppm,[11],≥ 90%
same,mortality,[12],not less than 90%
same,mortality at 13 ppm,[13],100%
same,mortality,[14],not less than 90%
same,mortality,[15],not less than 90%
same,mortality at 0.5 µg/female,[16],100%
same,mortality at 1 µg/female,[16],100%
same,mortality at 0.001 mg,"[16]; read-out: Pesticidal effect, housefly",100%
